Results reported in article PMC9413739, “Tri- and Pentacyclic Azaphenothiazine as Pro-Apoptotic Agents in Lung Carcinoma with a Protective Potential to Healthy Cell Lines” (Molecules, 2022).
“And” between values parts separate entries of the source, which are not always exact repeats. Identical values can stand only once.

Key:
H1299 = test: MTT viability assay, H1299; assay type: cell-based; settings: Homo sapiens, NCI-H1299, H1299, 72 h of incubation, mean of three experiments ± SD
Description: (§1) A standard anticancer drug, such as doxorubicin, was simultaneously used at the same concentrations range: 100, 50, 25, 12.5, 6.25, 3.15, 1.56 µM.
(§2) Biological experiments were conducted on a panel of cancer cell lines, adenocarcinoma human alveolar basal epithelial cells (A549), and human non-small cell lung carcinoma cell line (H1299). In order to determine the potential side effects of treatments, research was performed simultaneously on the human bronchial epithelial cells (BEAS-2B) and normal human dermal fibroblasts (NHDF); all cells received were received from the ATCC collections (Manassas, VA, USA). Cells were grown in DMEM F-12 medium (PAA, Warsaw, Poland) supplemented with 10% (v/v) heat-inactivated FBS (Eurx, Gdańsk, Poland) and 100 units/mL penicillin and 100 μg/mL streptomycin (Sigma-Aldrich, Darmstadt, Germany) at 37 °C in a humidified atmosphere with 5% CO2 [23, 27, 29].
(§3) Examination of cytotoxicity using MTT assay is the most convenient and fastest method for screening of cytotoxic action of the drugs. MTT assay is a colorimetric method for evaluation of cell viability based on mitochondrial dehydrogenase enzyme activity. The survival rate of the cells was calculated relative to the control cells, grown in standard conditions. Using this assay, IC50 values were calculated for each cell line treated with standard compounds and drugs. For […] assay, cells were seeded in 96-well plates at 1 × 10^4 cells/well in 0.2 mL completed medium 24 h before drug treatment. In the next step, cells were incubated for 72 h with the compounds (doses: 100; 50; 25; 12.5; 6.25; 3.15 and 1.56 µM) and then were washed three times with PBS (PAA, Laboratories GmbH, Cölbe, Germany). […] The levels of absorbance were measured at a wavelength of λ = 570 nm using a microplate spectrophotometer (Epoch; BioTek, Winooski, VT, USA) and expressed as a % of the untreated control, named the survival fraction [SF] […]

NHDF = test: MTT viability assay, NHDF; assay type: cell-based; settings: Homo sapiens, 72 h of incubation, mean of three experiments ± SD
Description: as §1, §2, §3

A549 cells [1] = test: Cell cycle analysis via flow cytometry, A549; assay type: cell-based, human; settings: A549, 50 µM, 72 h
Description: A lowered viability, followed by the MTT assay, could be a perfect indicator of the anticancer potential of drugs. However, this procedure measures the mitochondrial activity of the enzymatic complex. The real cytotoxicity against the antiproliferative action of drugs could be distinguished using the next step procedure, a cytometric cell cycle distribution, compared to the untreated controls. For that reason, the cell cycle was measured, followed by 72 h of incubation with DPT-1 and DPT-2. High doses of phenothiazines (50 µM) arrested the cell cycle at different phases, dependent on the cancer cell line. […] The phenomenon of sub-G1 phase reduction (lowered necrotic/apoptotic and general dead cells fraction), in comparison to the untreated control, could be explained by the cytostatic potential of phenothiazines. […] The MTT estimations of cells viability, calculated from the lowered absorbance, resulted from the antiproliferative and cytostatic role of DPT-1 and DPT-2 in the A549 cell line for S and G2/M cell cycle phases.
Many drugs work by inhibiting cell proliferation and causing cell cycle blockage. Using flow cytometry, the impact of new compounds on the cell cycle were determined. Cells incubated with compound were also analyzed for cellular death pathways, apoptosis induction, followed by Annexin-V assay. […]

H1299 cells [2] = test: Annexin-V apoptosis assay with PI staining, H1299; assay type: cell-based, human; settings: H1299, 50 µM, 72 h
Description: (§4) Followed by Annexin-V apoptosis assay after 72 h of incubation with DPT-1 and DPT-2 at a dose of 50 µM, the type of cellular death is possible to determine (Figure 6 and Figure 7). […] After 72 h of incubation of cells in both controls, some of the early and late apoptotic cells were observable, without necrotic ones.
(§5) Many drugs work by inhibiting cell proliferation and causing cell cycle blockage. Using flow cytometry, the impact of new compounds on the cell cycle were determined. Cells incubated with compound were also analyzed for cellular death pathways, apoptosis induction, followed by Annexin-V assay. Annexin-V is a protein that binds phosphatidylserine and allows early detection of apoptosis; additionally, iodium propide staining distinguishes it from necrosis. For apoptosis and cell cycle assays the cell cultures were plated in 6-well plates at a confluence of 1 × 10^5 in 2 mL of completed fresh DMEM-F12 medium, 24 h before drugs addition. An Aria III flow cytometer (Becton Dickinson; Franklin Lakes, NJ, USA) was used. The flow cytometry analysis was done on a free Flowing Software 2.5.1 program (by Perttu Terho, the Cell Imaging and Cytometry Core, Turku Bioscience Centre, Turku, Finland, with the support of Biocenter Finland).

BEAS-2B cells = test: Live Cell Analyzer microscopic observation, BEAS-2B; assay type: cell-based, human; settings: 72 h; for survival fraction in comparison to the untreated controls: 50 µM, images; for morphological observation: 100 µM
From the text: (§6) The cells stayed mostly unattached and floating with some shrunken, which indicates a late stage of apoptosis and necrosis. Using cancer cell lines A549 and H1299, the cellular apoptotic and necrotic death was confirmed, followed by cell cycle cytometric analysis for the sub-G1 fraction (please compare Figure 4 and Figure 5). […] Such observations additionally explained the results of Annexin-V apoptosis assays, where some of the cells, mainly carcinomas, presented an early apoptosis fraction (Figure 6, Figure 7 and Figure 8).
(§7) Microscopic observation and images acquisition with Live Cell Analyzer (JuLI™ Br; NanoEnTek Inc., Seoul, Korea) was used to directly observe on-plate confluence, density, and cell viability and images acquisitions.

A549 cells [3] = test: Live Cell Analyzer microscopic observation, A549; assay type: cell-based, human; settings: 72 h; for survival fraction in comparison to the untreated controls: A549, 50 µM, images; for morphological observation: A549, 100 µM
From the text: as §6, §7

[4] = test system: normal fibroblast HFF-1 cell line; parameters: method as in PMID 26950280; settings: cited from earlier work
H1299 cells [5] = test: Cell cycle analysis via flow cytometry, H1299; assay type: cell-based, human; settings: H1299, 50 µM, 72 h
Description: as §5

A549 cells [6] = test: Annexin-V apoptosis assay with PI staining, A549; assay type: cell-based, human; settings: 72 h; for type of cellular death at lower doses: A549, 0.78–12.5 µM; for type of cellular death at higher doses: A549, 25–100 µM
Description: as §4, §5

[7] = test system: human lung carcinoma A549 and non-small lung carcinoma H1299; test: MTT viability assay, summary over lung carcinoma lines; assay type: cell-based; settings: range over DPT-1 and DPT-2 in A549 and H1299
From the text: DPT-1 and DPT-2 initiated a biological response in the investigated cancer models with a different mechanism and at a different rate. Based on these findings, it can be concluded that DPT-1 and DPT-2 have potential as chemotherapeutic agents.
as §3

A549 = test: MTT viability assay, A549; assay type: cell-based; settings: Homo sapiens, A549, 72 h of incubation, mean of three experiments ± SD
Description: as §1, §2, §3

[8] = test system: A2780 ovarian cancer cells; parameters: method as in PMID 29123378; settings: A2780, dose-dependent inhibition; cited from earlier work
normal heart H9C2 cells = test system: normal heart H9C2 cells; parameters: method as in PMID 29123378; settings: cited from earlier work
[9] = test system: glioblastoma SNB-19, melanoma C-32, and breast cancer MCF-7 cell lines; parameters: method as in PMID 26950280; settings: SNB-19, C-32 and MCF-7 cell lines; cited from earlier work
[10] = test system: normal kidney HEK293 cells; parameters: method as in PMID 29123378; settings: cited from earlier work
BEAS-2B = test: MTT viability assay, BEAS-2B; assay type: cell-based; settings: Homo sapiens, 72 h of incubation, mean of three experiments ± SD
Description: as §1, §2, §3

[11] = test system: glioblastoma SNB-19, colorectal carcinoma Caco-2, breast cancer MDA-MB-231, and lung cancer A549 cell lines; parameters: method as in PMID 30981160; settings: range over SNB-19, Caco-2, MDA-MB-231 and A549; cited from earlier work
[12] = test system: normal human dermal fibroblasts NHDF; parameters: method as in PMID 30981160; settings: cited from earlier work

| IC50 (H1299) [µM] | IC50 [7] [µM] | IC50 (A549) [µM] | SMILES | IC50 (NHDF) [µM] | cell cycle arrest (A549 cells [1]) | type of cellular death (H1299 cells [2]) | survival fraction in comparison to the untreated controls (BEAS-2B cells) | morphological observation (BEAS-2B cells) | survival fraction in comparison to the untreated controls (A549 cells [3]) | morphological observation (A549 cells [3]) | cell cycle effect (H1299 cells [5]) | type of cellular death (A549 cells [6]; A549, 50 µM) | type of cellular death at lower doses (A549 cells [6]) | type of cellular death at higher doses (A549 cells [6]) | IC50 (BEAS-2B) [µM] | further results |
| --- | --- | --- | --- | --- | --- | --- | --- | --- | --- | --- | --- | --- | --- | --- | --- | --- |
| 2.515 ± 0.005 | 1.52 to 12.9 | 1.526 ± 0.004 | c1cnc2c(c1)Nc1ccncc1S2 [DPT-1, 10H-3,6-diazaphenothiazine] | 2.246 ± 0.01 | S and G2/M arrest | pro-apoptotic activity | 5–30% | typical morphological changes for cellular death | 5–30% | typical morphological changes for cellular death | cell cycle is stopped in the G0/G1-phase | pro-apoptotic activity | necrosis is visible | induced cellular death via an apoptosis pathway | 2.468 ± 0.01 | cells apoptotic (late apoptotic fraction, Annexin-V+/PI+) (H1299 cells [2]): ~90%; action against normal cells [4]: non-toxic action; cells apoptotic (late apoptotic fraction, Annexin-V+/PI+) (A549 cells [6]; A549, 50 µM): ~90%; IC50 [8]: 0.62 µM; cytotoxicity compared with A2780 (normal heart H9C2 cells): significantly less cytotoxicity; IC50 [9]: 0.46 µg/mL and 0.72 µg/mL; cytotoxicity compared with A2780 [10]: significantly less cytotoxicity |
| 12.89 ± 0.013 | 1.52 to 12.9 | 3.45 ± 0.054 | CN(C)CCCN1c2cnc3ccccc3c2Sc2cc3ccccc3nc21 [DPT-2, 7-(3′-dimethylaminopropyl)diquinothiazine] | 18.77 ± 0.038 | S and G2/M arrest | induced apoptosis, as well as necrosis | 5–30% | typical morphological changes for cellular death | 5–30% | typical morphological changes for cellular death | strong cytotoxic effect | induced apoptosis, as well as necrosis | induced early apoptosis | induced toxic, necrotic death | 11.26 ± 0.038 | IC50 [11]: 0.3 to 3.44 µM; tested population necrotic (Annexin-V−/PI+) (H1299 cells [2]): circa 30%; tested population necrotic (Annexin-V−/PI+) (A549 cells [6]; A549, 50 µM): circa 30%; cytotoxicity against normal cells [12]: low cytotoxicity |
| 7.749 ± 0.004 |  | 5.289 ± 0.004 | COc1cccc2c1C(=O)c1c(O)c3c(c(O)c1C2=O)C[C@@](O)(C(=O)CO)C[C@@H]3O[C@H]1C[C@H](N)[C@H](O)[C@H](C)O1 [doxorubicin, reference compound] | > 100 |  |  |  |  |  |  |  |  |  |  | < 1.56 |  |
